Patent US20250197368A1 (priority 2020, published 2025)
Where a name gives a salt, the structure may show the parent alone.

Experiments:
[1] = biological target: human α3β3γ2 GABAARs (benzodiazepine site) (Homo sapiens (Human), UniProt P18507+P34903); assay: In vitro radioligand binding assay ([3H]Ro15-1788 displacement), α3-GABAAR Ki; details: L(tk-) cell membranes, 4 nM [3H]Ro15-1788
Description: The affinity (Ki) of compounds for the benzodiazepine site of human recombinant GABAARs was measured by their ability to inhibit the binding of the selective benzodiazepine antagonist [^3H]Ro15-1788 ([^3H] flumazenil).
Mouse L(tk^−) cells stably expressing human α1β3γ2, α2β3γ2, α3β3γ2, α5β3γ2 GABAARs were generated by transfection of the individual subunits in the dexamethasone-inducible expression vector pMSGneo in mouse L(tk^−) cells (Hadingham et al., 1993, Mol. Pharmacol. 43:970-975 and 1993, Mol. Pharmacol. 44:1211-1218).
L(tk^−) cells stably expressing human α1β3γ2, α2β3γ2, α3β3γ2, α5β3γ2 GABAARs were maintained in DMEM F12 medium supplemented with 10% Foetal Bovine Serum, 1% Penicillin/Streptomycin and 1 mg/mL Geneticin G418 in an incubator at 37° C. with a humidified atmosphere with 5% CO2. Dexamethasone was added to the culture medium to induce GABAAR expression.
L(tk−) cells were harvested and membranes were prepared for each receptor combination in either TE buffer (10 mM Tris·CI/0.1 mM EDTA, pH 7.5) or phosphate buffer (K2PO4 10 mM, pH 7.0) (Hadingham et al. (1992) Proc. Natl. Acad. Sci. USA; 89 (14): 6378-82). Protein concentration, receptor expression and the Kd of [^3H]Ro15-1788 were determined before Ki value of the compounds were evaluated. For Kd evaluation, saturation binding curves were obtained by incubating membrane with various concentrations of [^3H]Ro15-1788 (82.5 Ci/mM), with nonspecific binding measured in the presence of 1-3 μM TP003.
For Ki evaluation, cell membranes were incubated with 4 nM [^3H]Ro15-1788 along with a range of concentrations of test compound. Nonspecific binding was determined using 1-3 μM TP003. All incubations were performed for 1 hour at 4° C. in assay buffer. The total assay volume was 0.5 mL, containing 40 μg/well α1β3γ2, 30 μg/well α2β3γ2, 40 μg/well α3β3γ2 and 30 μg/well for α5β3γ2 of membrane protein. Incubations were terminated by filtration and washing with ice cold Tris-HCl buffer (50 mM, pH=7.4) over Whatman GF/B filters and the radioactivity of the filters was measured using liquid scintillation counting.
The % inhibition of [^3H]Ro15-1788 binding was plotted as a function of compound concentration and the IC50 calculated. From the IC50, the affinity (Ki) was calculated using the method of Cheng and Prusoff using the Kd values obtained for [^3H]Ro15-1788.

[2] = biological target: human α2β3γ2 GABAARs (benzodiazepine site) (Homo sapiens (Human), UniProt P18507+P47869); assay: In vitro radioligand binding assay ([3H]Ro15-1788 displacement), α2-GABAAR Ki
Sequence of human α2β3γ2 GABAARs (benzodiazepine site) (P47869 29-451): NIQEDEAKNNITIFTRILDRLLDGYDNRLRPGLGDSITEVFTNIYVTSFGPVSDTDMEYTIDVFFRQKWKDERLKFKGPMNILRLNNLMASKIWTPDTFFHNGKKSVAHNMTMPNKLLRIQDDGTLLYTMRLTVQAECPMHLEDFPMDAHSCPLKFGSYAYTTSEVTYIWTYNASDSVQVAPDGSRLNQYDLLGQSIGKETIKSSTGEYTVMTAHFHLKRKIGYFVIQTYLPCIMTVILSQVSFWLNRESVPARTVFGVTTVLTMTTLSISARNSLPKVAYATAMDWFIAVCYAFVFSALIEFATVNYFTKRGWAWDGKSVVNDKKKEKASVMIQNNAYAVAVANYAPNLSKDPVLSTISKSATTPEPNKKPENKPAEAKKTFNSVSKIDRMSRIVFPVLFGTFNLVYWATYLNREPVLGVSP
Sequence of human α2β3γ2 GABAARs (benzodiazepine site) (P28472 26-473 partner): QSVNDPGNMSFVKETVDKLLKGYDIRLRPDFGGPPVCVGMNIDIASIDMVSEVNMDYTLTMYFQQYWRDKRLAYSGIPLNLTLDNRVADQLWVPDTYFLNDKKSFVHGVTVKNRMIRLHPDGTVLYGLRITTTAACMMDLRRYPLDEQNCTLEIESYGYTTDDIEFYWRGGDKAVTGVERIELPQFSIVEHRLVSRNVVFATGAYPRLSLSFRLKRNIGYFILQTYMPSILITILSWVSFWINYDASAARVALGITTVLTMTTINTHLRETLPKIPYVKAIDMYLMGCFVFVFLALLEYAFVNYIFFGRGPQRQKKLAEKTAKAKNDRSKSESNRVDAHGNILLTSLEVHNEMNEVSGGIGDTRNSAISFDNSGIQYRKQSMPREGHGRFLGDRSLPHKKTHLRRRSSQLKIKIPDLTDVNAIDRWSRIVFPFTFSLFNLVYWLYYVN
Sequence of human α2β3γ2 GABAARs (benzodiazepine site) (P18507 40-475): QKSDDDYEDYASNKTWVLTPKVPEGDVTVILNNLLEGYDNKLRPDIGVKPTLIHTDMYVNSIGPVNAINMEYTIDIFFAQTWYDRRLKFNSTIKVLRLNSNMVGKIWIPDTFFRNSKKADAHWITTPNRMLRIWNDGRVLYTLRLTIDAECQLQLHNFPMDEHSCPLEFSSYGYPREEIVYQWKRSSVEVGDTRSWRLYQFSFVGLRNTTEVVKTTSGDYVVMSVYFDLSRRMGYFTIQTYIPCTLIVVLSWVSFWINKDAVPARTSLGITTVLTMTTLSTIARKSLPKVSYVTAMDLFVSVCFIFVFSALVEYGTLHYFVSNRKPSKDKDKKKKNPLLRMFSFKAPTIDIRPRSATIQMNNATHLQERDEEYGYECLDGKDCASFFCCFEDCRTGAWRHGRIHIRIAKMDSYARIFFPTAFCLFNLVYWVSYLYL
How it was run: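 Membranes from dexamethasone-induced mouse L(tk−) cells stably expressing the human receptor were incubated 1 h at 4° C with 4 nM [3H]Ro15-1788 and graded compound; nonspecific binding with 1-3 μM TP003. Filter-bound radioactivity counted; Ki from IC50 by Cheng-Prusoff using the measured radioligand Kd.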

human α2β3γ2 GABAARs = assay: In vitro electrophysiological recording assay (automated patch-clamp), α2-GABAAR relative efficacy; format: cell-based; details: % efficacy normalised to diazepam; GABA EC10-20; concentration generally >= 100 times Ki
How it was run: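 Automated whole-cell patch clamp at 20-22° C on L(tk^−) cells (QPatch, −65 mV) or HEK293 cells (SyncroPatch, −80 mV) stably expressing the human receptor. Compound pre-applied ≥1 min, then co-applied with GABA EC10-20; % potentiation of leak-corrected peak current, normalised to diazepam, typically at ≥100× Ki.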

| Compound | Ki [1] [nM] | Ki [2] [nM] | α2-GABAAR Relative Efficacy (vs. Diazepam) (human α2β3γ2 GABAARs) |
| --- | --- | --- | --- |
| CCCNC(=O)c1c(N)c2cccc(-c3cccc(OC(F)F)n3)c2[nH]c1=O [Example 2, 4-Amino-8-(6-(difluoromethoxy)pyridin-2-yl)-2-oxo-N-propyl-1,2-dihydroquinoline-3-carboxamide] | 1.59 | 3.33 | 0.34 |
| CCCNC(=O)c1c(N)c2cccc(-c3cc(F)ccn3)c2[nH]c1=O [Example 4, 4-Amino-8-(4-fluoro-2-pyridyl)-2-oxo-N-propyl-1H-quinoline-3-carboxamide] | 1.65 | 1.26 | 0.40 |
| CCCNC(=O)c1c(N)c2cccc(-c3ncccc3C)c2[nH]c1=O [Example 5, 4-Amino-8-(3-methylpyridin-2-yl)-2-oxo-N-propyl-1,2-dihydroquinoline-3-carboxamide] | 16.1 | 5.66 | 0.42 |
| CCCNC(=O)c1c(N)c2cccc(-c3nc(OC)ccc3F)c2[nH]c1=O [Example 8, 4-Amino-8-(3-fluoro-6-methoxypyridin-2-yl)-2-oxo-N-propyl-1,2-dihydroquinoline-3-carboxamide] | 0.19 | 0.38 | 0.24 |
| CCCNC(=O)c1c(N)c2cccc(-c3nc(C(F)(F)F)ccc3C)c2[nH]c1=O [Example 13, 4-Amino-8-[3-methyl-6-(trifluoromethyl)-2-pyridyl]-2-oxo-N-propyl-1H-quinoline-3-carboxamide] | 7.6 | 6.05 | 0.34 |
| CCCNC(=O)c1c(N)c2cccc(-c3cccnc3OC)c2[nH]c1=O [Example 14, 4-Amino-8-(2-methoxypyridin-3-yl)-2-oxo-N-propyl-1,2-dihydroquinoline-3-carboxamide] | 6.02 | 2.13 | 0.45 |
| CCCNC(=O)c1c(N)c2cccc(-c3cncc(OC)c3)c2[nH]c1=O [Example 23, 4-Amino-8-(5-methoxy-3-pyridyl)-2-oxo-N-propyl-1H-quinoline-3-carboxamide] | 7.21 | 2.31 | 0.33 |
| CCCNC(=O)c1c(N)c2cccc(-c3cncc(OC(C)C)c3)c2[nH]c1=O [Example 27, 4-Amino-8-(5-isopropoxypyridin-3-yl)-2-oxo-N-propyl-1,2-dihydroquinoline-3-carboxamide] | 10.6 | 22.7 | 0.28 |
| CCCNC(=O)c1c(N)c2cccc(-c3cc(OCc4coc(C(C)C)n4)ccc3F)c2[nH]c1=O [Example 123, 4-Amino-8-[2-fluoro-5-[(2-isopropyloxazol-4-yl)methoxy]phenyl]-2-oxo-N-propyl-1H-quinoline-3-carboxamide] | – | 1.71 | 0.2549 |
| CCCNC(=O)c1c(N)c2cccc(-c3cc(OCc4cncn4C)ccc3F)c2[nH]c1=O [Example 125, 4-Amino-8-(2-fluoro-5-((1-methyl-1H-imidazol-5-yl)methoxy)phenyl)-2-oxo-N-propyl-1,2-dihydroquinoline-3-carboxamide] | – | 0.37 | 0.22 |
| CCCNC(=O)c1c(N)c2cccc(-c3cc(OCc4cn(C)cn4)ccc3F)c2[nH]c1=O [Example 126, hydrochloride] | – | 1.19 | 0.27 |
| CCCNC(=O)c1c(N)c2cccc(-c3cc(OCc4cc[nH]n4)ccc3F)c2[nH]c1=O [Example 127, 4-Amino-8-[2-fluoro-5-(1H-pyrazol-3-ylmethoxy)phenyl]-2-oxo-N-propyl-1H-quinoline-3-carboxamide] | – | 0.78 | 0.24 |
| CCCNC(=O)c1c(N)c2cccc(-c3cc(OCc4ccn(C)n4)ccc3F)c2[nH]c1=O [Example 128, 4-Amino-8-[2-fluoro-5-[(1-methylpyrazol-3-yl)methoxy]phenyl]-2-oxo-N-propyl-1H-quinoline-3-carboxamide] | – | 1.08 | 0.24 |
| CCCNC(=O)c1c(N)c2cccc(-c3cc(OCc4cn(C)nn4)ccc3F)c2[nH]c1=O [Example 129, 4-Amino-8-[2-fluoro-5-[(1-methyltriazol-4-yl)methoxy]phenyl]-2-oxo-N-propyl-1H-quinoline-3-carboxamide] | – | 0.65 | 0.25 |
| CCCNC(=O)c1c(N)c2cccc(-c3cc(OCc4noc(C)n4)ccc3F)c2[nH]c1=O [Example 130, 4-Amino-8-[2-fluoro-5-[(5-methyl-1,2,4-oxadiazol-3-yl)methoxy]phenyl]-2-oxo-N-propyl-1H-quinoline-3-carboxamide] | – | 0.65 | 0.18 |
| CCCNC(=O)c1c(N)c2cccc(-c3cc(OCc4nnc(C)o4)ccc3F)c2[nH]c1=O [Example 131, 4-Amino-8-(2-fluoro-5-((5-methyl-1,3,4-oxadiazol-2-yl)methoxy)phenyl)-2-oxo-N-propyl-1,2-dihydroquinoline-3-carboxamide] | – | 0.3 | 0.40 |
| CCCNC(=O)c1c(N)c2cccc(-c3cc(OCc4ccc5[nH]cnc5c4)ccc3F)c2[nH]c1=O [Example 133, 8-(5-((1H-Benzo[d]imidazol-5-yl)methoxy)-2-fluorophenyl)-4-amino-2-oxo-N-propyl-1,2-dihydroquinoline-3-carboxamide] | – | 1.29 | 0.23 |
| CCCNC(=O)c1c(N)c2cccc(-c3cc(OCCn4cnnc4)ccc3F)c2[nH]c1=O [Example 134, 4-Amino-8-[2-fluoro-5-[2-(1,2,4-triazol-4-yl)ethoxy]phenyl]-2-oxo-N-propyl-1H-quinoline-3-carboxamide] | – | 0.17 | 0.04 |
| CCCNC(=O)c1c(N)c2cccc(-c3cc(OCC4CCOCC4)ccc3F)c2[nH]c1=O [Example 135, 4-Amino-8-[2-fluoro-5-(tetrahydropyran-4-ylmethoxy)phenyl]-2-oxo-N-propyl-1H-quinoline-3-carboxamide] | – | 0.7 | 0.20 |
| CCCNC(=O)c1c(N)c2cccc(-c3cc(OCC4COC4)ccc3F)c2[nH]c1=O [Example 136, 4-Amino-8-[2-fluoro-5-(oxetan-3-ylmethoxy)phenyl]-2-oxo-N-propyl-1H-quinoline-3-carboxamide] | – | 0.9 | 0.24 |
| CCCNC(=O)c1c(N)c2cccc(-c3cc(CN4CC5(CCN(C)C5)C4)ccc3F)c2[nH]c1=O [Example 139, 4-Amino-8-(2-fluoro-5-((6-methyl-2,6-diazaspiro[3.4]octan-2-yl)methyl)phenyl)-2-oxo-N-propyl-1,2-dihydroquinoline-3-carboxamide] | – | 1.08 | 0.18 |
| CCCNC(=O)c1c(N)c2cccc(-c3cc(CN4CC5(CCN(C)CC5)C4)ccc3F)c2[nH]c1=O [Example 140, 4-Amino-8-(2-fluoro-5-((7-methyl-2,7-diazaspiro[3.5]nonan-2-yl)methyl)phenyl)-2-oxo-N-propyl-1,2-dihydroquinoline-3-carboxamide] | – | 1.88 | 0.34 |
| CCCNC(=O)c1c(N)c2cccc(-c3cc(CN4CC5(CCOCC5)C4)ccc3F)c2[nH]c1=O [Example 141, hydrochloride] | – | 2.61 | 0.36 |
| CCCNC(=O)c1c(N)c2cccc(-c3cc(Cc4ncn(CC)n4)ccc3F)c2[nH]c1=O [Example 145, 4-Amino-8-(5-((1-ethyl-1H-1,2,4-triazol-3-yl)methyl)-2-fluorophenyl)-2-oxo-N-propyl-1,2-dihydroquinoline-3-carboxamide] | – | 1.29 | 0.28 |
